Here are results for one compound from patent US20060019936A1 (priority 2004, published 2006).

The subject of data set [1] is LNCaP cells. Put plainly: Annexin V staining and flow cytometry. It is filed as cell-based, human. As to conditions: treatment for 15 h. On the technique in general: In flow cytometry, cells or beads pass a laser one at a time.
Data set [2] has as its system LNCaP cells grown as a xenograft. Put plainly: LNCaP xenograft in nude mice. In kind it is in vivo. As to conditions: seven weekly five-day cycles of 30 mg/kg IP. Here is the method: The efficacy of 11β-dichloro was examined toward LNCaP cells grown as a xenograft in nude mice. […] Animals bearing LNCaP xenografts were treated with seven consecutive weekly five-day cycles of 30 mg 11β-dichloro/kg administered via IP injection.
Animal Studies. Four to six week old NIH Swiss nu/nu athymic male mice (25 gm) were obtained from the National Cancer Institute-Frederick Cancer Center (Frederick, Md.). Experiments were carried out under guidelines of the MIT Animal Care Committee. Animals were injected subcutaneously in the right flank with 5×10^6 LNCaP cells suspended in a solution of 50% PBS/50% Matrigel (Collaborative Research, Bedford, Mass.). Therapy commenced when a palpable tumor of approximately 4×4 mm formed (n=5 per treatment group). The 11β-dichloro compound was dissolved in a vehicle composed of cremophor EL, saline and ethanol (43:30:27). Tumor dimensions were measured with vernier calipers. Tumor volumes were calculated using the formula: π/6×larger diameter×(smaller diameter)^2. Statistical analyses were performed using a paired t-test. At the end of the study period, animals were euthanized with CO2. At the time of sacrifice, blood samples were taken from several animals in each group for a complete blood count, along with serum chemistry and liver function analyses. A complete necropsy was also performed, including histopathology on two animals from each group.

In data set [3] the target is T1, AR from LNCaP cells (Homo sapiens, UniProt P10275, T878A).
T1 construct: Whole cell extracts prepared from LNCaP and T47D cells were used as sources of the AR and PR respectively; endogenous in cells; host or cells: LNCaP whole cell extract
T1 sequence (P10275 whole entry T878A): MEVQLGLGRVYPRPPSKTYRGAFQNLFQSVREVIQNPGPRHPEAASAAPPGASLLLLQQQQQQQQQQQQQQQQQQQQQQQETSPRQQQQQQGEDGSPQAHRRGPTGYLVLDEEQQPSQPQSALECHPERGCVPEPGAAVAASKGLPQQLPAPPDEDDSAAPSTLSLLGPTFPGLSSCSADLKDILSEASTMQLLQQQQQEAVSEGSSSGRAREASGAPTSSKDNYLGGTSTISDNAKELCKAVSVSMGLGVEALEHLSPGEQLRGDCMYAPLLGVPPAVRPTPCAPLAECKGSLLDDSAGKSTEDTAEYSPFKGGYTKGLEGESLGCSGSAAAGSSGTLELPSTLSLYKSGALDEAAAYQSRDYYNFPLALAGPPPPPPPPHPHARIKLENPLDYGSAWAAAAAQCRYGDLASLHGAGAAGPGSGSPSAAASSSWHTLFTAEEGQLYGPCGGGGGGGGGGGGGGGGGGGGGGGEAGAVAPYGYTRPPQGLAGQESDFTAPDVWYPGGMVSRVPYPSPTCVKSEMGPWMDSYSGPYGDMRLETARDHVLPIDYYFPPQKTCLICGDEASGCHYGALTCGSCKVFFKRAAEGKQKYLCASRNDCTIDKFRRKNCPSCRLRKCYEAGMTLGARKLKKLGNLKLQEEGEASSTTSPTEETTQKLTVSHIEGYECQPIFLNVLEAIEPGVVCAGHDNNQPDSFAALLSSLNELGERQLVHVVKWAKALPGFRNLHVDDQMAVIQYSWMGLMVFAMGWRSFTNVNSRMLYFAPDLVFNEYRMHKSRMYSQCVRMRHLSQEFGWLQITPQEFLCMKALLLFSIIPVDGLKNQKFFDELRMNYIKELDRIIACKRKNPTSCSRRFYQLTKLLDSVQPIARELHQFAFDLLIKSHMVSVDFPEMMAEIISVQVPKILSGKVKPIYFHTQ
Description: Competitive binding assay for the AR (relative binding affinity). As to conditions: dihydrotestosterone RBA=100.

Data set [4] concerns liver DNA. Description: DNA adduct formation in liver of treated mice. In kind it is in vivo. As to conditions: two hours post dosing. As to the method: A set of in vivo studies was performed to assess the stability and biodistribution of the 11β-dichloro compound in mice. These studies required formulation of the compound in a vehicle that would deliver the compound to the tissues following IP or IV administration. The vehicle was Cremophor EL:ethanol:saline (40:30:30 by volume). […] For 2 to 3 hours the compound was present above the […] concentration at which good differential toxicity in favor of killing LNCaP cells in culture was observed. There was also evidence that the intact molecule reached its intended biological target—cellular DNA.

Data set [5] has as its system engineered estrogen receptor ligand binding domain-positive HeLa cell line. Put plainly: ER ligand binding domain-positive HeLa xenograft in nude mice. It is filed as in vivo.
Data set [6] in a line: Pharmacokinetics / plasma levels in mice.
Data set [7] relates to p70S6K. Description: Phosphorylation status of p70S6K in LNCaP cells. In kind it is cell-based, human. As to conditions: after addition to cells.
Data set [8] deals with p21 (WAF1/Cip1). It is filed as cell-based, human. As to conditions: LNCaP cells, 10 μM.
Data set [9] has as its system human colon adenocarcinoma cell line DLD-1. Put plainly: DLD-1 xenograft in nude mice. In kind it is in vivo.
Data set [10] deals with LNCaP cells. Description: DNA fragmentation by agarose gel electrophoresis. It is filed as cell-based, human. As to conditions: 10 μM, 24 h exposure.
Data set [11] relates to PARP. It is filed as cell-based, human. As to conditions: 10 μM, LNCaP cells.
Data set [12] has as its system p45 Skp2. It is filed as cell-based, human. As to conditions: LNCaP cells, 10 μM, up to 15 h.
The subject of data set [13] is 4E-BP1. Put plainly: Phosphorylation status of 4E-BP1 in LNCaP cells. In kind it is cell-based, human.
The test system of data set [14] is p27 (Kip1). It is filed as cell-based, human. As to conditions: LNCaP cells, 10 μM, up to 15 h.
The subject of data set [15] is LNCaP cells. In kind it is cell-based, human.
Data set [16] deals with c-Myc. Put plainly: c-Myc protein levels in LNCaP cells. In kind it is cell-based, human.
Data set [17] concerns LNCaP cells. Description: Cell cycle analysis by flow cytometry. It is filed as cell-based, human. As to conditions: LNCaP cells.
The subject of data set [18] is LNCaP, PC3 and DU145 cells. Put plainly: Differential sensitivity of AR positive and AR negative cells. In kind it is cell-based, human. As to conditions: dose of 10 μM. As to the method:
AR positive LNCaP cells were 7-fold more sensitive than AR negative PC3 and DU145 cells at a dose of 10 μM. Investigations on similar molecules in which a ligand for the estrogen receptor (ER) was tethered to the same DNA damaging warhead, a similar (but slightly smaller) differential toxicity in favor of killing ER positive cells was observed.

The subject of data set [19] is LNCaP cells. It is filed as cell-based, human. As to conditions: LNCaP cells, single agent.

Entries after “also recorded” stand apart in the source; their conditions may differ.

As for `CC12CC(CCCCCCNCCOC(=O)NCCCc3ccc(N(CCCl)CCCl)cc3)C3=C4CCC(=O)C=C4CCC3C1CCC2O` (stereo not drawn) [Compound 11β-dichloro, 11β-{N-(2-(N-((N,N-bis-2-chloroethylaminophenyl)propyl)-carbamoyloxy)ethyl)aminohexyl}-17β-hydroxy-estra-Δ4(5),9(10)-3-one], the “concentration showing increased Annexin V staining” value in data set [1] was greater than 5 µM. In [2], the “tumor growth of LNCaP xenograft” value is listed as “inhibition of tumor growth”. The “RBA (Relative Binding Affinity) for the AR” value in data set [3] is 33. Besides, in data set [4], the “DNA adducts formed by the intact compound in liver” value was “isolated from liver DNA of treated animals”. Also, the “tumor growth of ER-LBD-positive HeLa xenograft” value in data set [5] is recorded as “Inhibition of tumor growth”. This compound came in with a plasma levels in [6] (IP injection of radiolabeled compound, within 30 min) of 30 to 40 µM. The “intact compound in plasma by HPLC” value in data set [6] (at 1 hour, along with several minor unidentified metabolites) is listed as “lower concentrations”. Besides, the “time to removal of the phosphate on Th389 of p70S6K” value in data set [7] is no more than 30 min. The “initial change in levels of p21” value in data set [8] is “initially decreased”. Moreover, in data set [8] (up to 15 h), the “increase in level of p21” value was found to be 9 fold. Also, the “tumor growth of DLD-1 xenograft” value in data set [9] is on record as “Inhibition of tumor growth”. In addition, the DNA fragmentation entry in [10] was “DNA fragmentation occurs”. In data set [11], the “time to cleavage of PARP” value is recorded as no more than 9 h. For the same compound, the “levels of Skp2” value in data set [12] was “decreased”. The “phosphorylation of 4E-BP1” value in data set [13] is recorded as “rapid disappearance of phosphate groups”. In addition, in [14], the “levels of p27” value is listed as “increased”. Moreover, the “changes in LNCaP cell shape” value in data set [15] was “dramatic contraction and detachment”. Besides, in [16], the “levels of the c-Myc protein” value is on record as “decreased rapidly”. Besides, the cell cycle arrest result in data set [17] was “did not arrest cells in a specific point in the cell cycle”. For the same compound, the “sensitivity of AR positive LNCaP cells relative to AR negative PC3 and DU145 cells” value in data set [18] is on record as 7 fold. Also, in data set [19], the apoptotic response entry is “LNCaP cells undergo apoptosis; also recorded: potent inducer of apoptosis and cell death; also recorded: activates an apoptotic response resulting in destruction of cells”.
